According to patent publication US8883782B2, “Spiro-tetracyclic ring compounds as beta-secretase modulators and methods of use” (Amgen Inc., priority 2010, dated 2014):
Read-outs that look alike come from different tables or passages of the source. One block for each compound: values may come before it.

Key:
[1] = system: Aβ40 in conditioned medium of cells stably expressing Amyloid Precursor Protein (APP); assay: In vitro BACE cell-based assay (Aβ40 in conditioned medium, sandwich ELISA)
Procedure, shortened: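 Secreted Aβ40 is captured with pAb40 and detected with biotinylated 6E10, read by europium time-resolved fluorescence. IC50 comes from percent inhibition versus concentration.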

[2] = molecular target: Beta Secretase enzyme (BACE) (Homo sapiens, UniProt P56817); assay: In vitro enzymatic BACE FRET (fluorescence resonance energy transfer) assay; format: biochemical
Procedure, shortened: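 Run in 0.05 M acetate pH 4.2 with 10% DMSO final and 100 uM genapol; started by adding 50 nM FRET peptide substrate (fluorophore and quencher flanking the cleavage site), incubated one hour, then stopped with Tris to neutral pH before reading fluorescence.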

[3] = average IC50, enzyme assay, read-out: BACE 1 FRET assay
[4] = Homo sapiens, HEK293, average IC50, HEK cells, read-out: HEK cell assay
[5] = Homo sapiens, HEK293, average IC50, read-out: HEK cell assay

Beta Secretase enzyme (BACE), sequence (P56817 46-501, species assumed): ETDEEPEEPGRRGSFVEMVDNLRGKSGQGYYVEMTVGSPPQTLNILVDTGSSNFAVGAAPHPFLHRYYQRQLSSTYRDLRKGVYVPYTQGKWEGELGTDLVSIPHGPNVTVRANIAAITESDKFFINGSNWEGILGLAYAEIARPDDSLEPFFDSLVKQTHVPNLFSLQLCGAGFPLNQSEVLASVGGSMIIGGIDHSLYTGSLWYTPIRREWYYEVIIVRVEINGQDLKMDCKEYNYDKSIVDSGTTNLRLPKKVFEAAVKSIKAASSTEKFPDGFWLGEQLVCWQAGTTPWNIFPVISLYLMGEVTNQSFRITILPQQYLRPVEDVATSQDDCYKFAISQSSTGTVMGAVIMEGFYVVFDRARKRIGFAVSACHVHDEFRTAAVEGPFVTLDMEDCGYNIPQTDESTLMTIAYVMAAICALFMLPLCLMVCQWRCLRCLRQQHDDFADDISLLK

Compound: COC[C@H]1SC(N)=NC12c1cc(-c3cccnc3F)ccc1Oc1cnc(-c3ccnc(F)c3)cc12 (single isomer, unassigned) [Example 1095, (4′S/R,5′S)-7-(2-fluoropyridin-3-yl)-3-(2-fluoropyridin-4-yl)-5′-(methoxymethyl)-5′H-spiro[chromeno[2,3-c]pyridine-5,4′-thiazol]-2′-amine]
IC50 ([1]; read-out: HEK cell assay): 5.99 µM | IC50 [2, 3]: 0.573 µM

Compound: CC1(C#Cc2cnc3c(c2)[C@]2(CSC(N)=N2)c2cc(-c4cnccc4F)ccc2O3)COC1 [Example 727, (5S)-7-(4-fluoro-3-pyridinyl)-3-((3-methyl-3-oxetanyl)ethynyl)spiro[chromeno[2,3-b]pyridine-5,4′-[1,3]thiazol]-2′-amine]
IC50 [1, 5]: 0.128 µM | IC50 [2, 3]: 0.0041 µM

Compound: NC1=N[C@@]2(CO1)c1cc(Oc3cc(Cl)ccn3)ccc1Oc1c(F)cc(N3CCOCC3)cc12 [Example 1062, (4S)-7′-((4-chloro-2-pyridinyl)oxy)-4′-fluoro-2′-(4-morpholinyl)spiro[1,3-oxazole-4,9′-xanthen]-2-amine]
IC50 [1, 5]: 0.374 µM | IC50 [2, 3]: 0.0223 µM

Compound: NC1=N[C@@]2(CS1)c1cc(-c3cccnc3F)ccc1Oc1ncc(Br)cc12 [Example 603, (5S)-3-bromo-7-(2-fluoro-3-pyridinyl)spiro[chromeno[2,3-b]pyridine-5,4′-[1,3]thiazol]-2′-amine]
IC50 [1, 4]: 0.188 µM | IC50 [2, 3]: 0.0087 µM

Compound: COc1cccc(-c2ccc3c(c2)[C@@]2(COC(N)=N2)c2cc(C4=CCOCC4)cnc2O3)c1 [Example 322, (5S)-3-(3,6-dihydro-2H-pyran-4-yl)-7-(3-methoxyphenyl)spiro[chromeno[2,3-b]pyridine-5,4′-[1,3]oxazol]-2′-amine]
IC50 [1, 5]: 0.0261 µM | IC50 [2, 3]: 0.0036 µM

Compound: Cc1ccnn1-c1cc(F)c2c(c1)[C@]1(COC(N)=N1)c1cc(-c3cccnc3)ccc1O2 [Example 634, (4S)-4′-fluoro-2′-(5-methyl-1H-pyrazol-1-yl)-7′-(3-pyridinyl)spiro[1,3-oxazole-4,9′-xanthen]-2-amine]
IC50 [1, 4]: 0.154 µM | IC50 [2, 3]: 0.0303 µM

Compound: NC1=N[C@@]2(CO1)c1cc(OCc3cccnc3)ccc1Oc1ncc(Br)cc12 [Example 976, (5S)-3-bromo-7-(3-pyridinylmethoxy)spiro[chromeno[2,3-b]pyridine-5,4′-[1,3]oxazol]-2′-amine]
IC50 [1, 5]: ≥ 10 µM | IC50 [2, 3]: 3.81 µM

Compound: CC1(C)C=C(c2cc3c(cn2)Oc2ccc(-c4cncnc4)cc2[C@@]32COC(N)=N2)CCO1 [Example 678, (5S)-3-(6,6-dimethyl-3,6-dihydro-2H-pyran-4-yl)-7-(5-pyrimidinyl)spiro[chromeno[2,3-c]pyridine-5,4′-[1,3]oxazol]-2′-amine]
IC50 ([1]; average IC50, HEK cells): 0.008 µM | IC50 ([2]; BACE 1 FRET assay (uM)): 0.0009 µM

Compound: CC1(C#Cc2cnc3c(c2)[C@@]2(COC(N)=N2)c2c(ccc(-c4ccc(F)nc4)c2F)O3)COC1 [Example 343, (5S)-6-fluoro-7-(6-fluoro-3-pyridinyl)-3-((3-methyl-3-oxetanyl)ethynyl)spiro[chromeno[2,3-b]pyridine-5,4′-[1,3]oxazol]-2′-amine]
IC50 [1, 5]: 1.84 µM | IC50 [2, 3]: 0.391 µM

Compound: COc1cc(F)c2c(c1)[C@]1(COC(N)=N1)c1cc(-c3cncc(C#CC(C)(C)O)c3)ccc1O2 [Example 822, 4-(5-((4S)-2-amino-5′-fluoro-7′-methoxyspiro[1,3-oxazole-4,9′-xanthen]-2′-yl)-3-pyridinyl)-2-methyl-3-butyn-2-ol]
IC50 [1, 5]: 3 µM | IC50 [2, 3]: 0.0933 µM

Compound: NC1=N[C@@]2(CO1)c1cc(-c3cccnc3)ccc1Oc1c(F)cc(-n3cccn3)cc12 [Example 684, (4S)-4′-fluoro-2′-(1H-pyrazol-1-yl)-7′-(3-pyridyl)spiro[1,3-oxazole-4,9′-xanthen]-2-amine]
IC50 [1, 4]: 0.034 µM | IC50 [2, 3]: 0.0038 µM

Compound: COc1nc(C2=CCOCC2)cc2c1Oc1ccc(-c3cccnc3F)cc1[C@@]21COC(N)=N1 [Example 832, (5S)-3-(3,6-dihydro-2H-pyran-4-yl)-7-(2-fluoro-3-pyridinyl)-1-methoxyspiro[chromeno[2,3-c]pyridine-5,4′-[1,3]oxazol]-2′-amine]
IC50 ([1]; Homo sapiens, HEK293, read-out: HEK cell assay (uM), average IC50, HEK cell assay): 0.032 µM | IC50 ([2]; BACE 1 FRET assay (uM)): 0.0007 µM

Compound: CC(C)(C)COc1ccc2c(c1)[C@@]1(COC(N)=N1)c1cc(C3=CCOCC3)cnc1O2 [Example 503, (5S)-3-(3,6-dihydro-2H-pyran-4-yl)-7-(2,2-dimethylpropoxy)spiro[chromeno[2,3-b]pyridine-5,4′-[1,3]oxazol]-2′-amine]
IC50 [1, 4]: 0.0196 µM | IC50 [2, 3]: 0.0047 µM

Other lines, results leading:

IC50 [1, 4]: 0.019 µM | IC50 [2, 3]: 0.0012 µM
Compound: CC1(C#Cc2cc3c(cn2)Oc2ccc(-c4cccnc4F)cc2C32CSC(N)=N2)COC1 (centres unmarked) [Example 683, 7-(2-fluoro-3-pyridinyl)-3-((3-methyl-3-oxetanyl)ethynyl)spiro[chromeno[2,3-c]pyridine-5,4′-[1,3]thiazol]-2′-amine]

IC50 [1, 5]: 0.023 µM | IC50 [2, 3]: 0.0006 µM
Compound: NC1=N[C@@]2(CO1)c1cc(OCc3cccc(Br)c3)ccc1Oc1ncc(-c3cccnc3)cc12 [Example 979, (5S)-7-((3-bromobenzyl)oxy)-3-(3-pyridinyl)spiro[chromeno[2,3-b]pyridine-5,4′-[1,3]oxazol]-2′-amine]

IC50 [1, 4]: 0.007 µM | IC50 [2, 3]: 0.0006 µM
Compound: CC(C)(C)C#Cc1cnc2c(c1)[C@]1(CSC(N)=N1)c1cc(-c3cncnc3)ccc1O2 [Example 629, (5S)-3-(3,3-dimethyl-1-butyn-1-yl)-7-(5-pyrimidinyl)spiro[chromeno[2,3-b]pyridine-5,4′-[1,3]thiazol]-2′-amine]

IC50 [1, 4]: 0.0141 µM | IC50 [2, 3]: 0.003 µM
Compound: COC(C)(C)CNc1cc2c(cn1)Oc1ccc(-c3cccnc3F)cc1[C@@]21COC(N)=N1 [Example 418, (5S)-7-(2-fluoro-3-pyridinyl)-N~3~-(2-methoxy-2-methylpropyl)spiro[chromeno[2,3-c]pyridine-5,4′-[1,3]oxazole]-2′,3-diamine]

IC50 [1, 4]: 0.0159 µM | IC50 [2, 3]: 0.002 µM
Compound: Cn1cc(-c2cnc3c(c2)[C@]2(CSC(N)=N2)c2cc(-c4cccnc4F)ccc2O3)cn1 [Example 584, (5S)-7-(2-fluoro-3-pyridinyl)-3-(1-methyl-1H-pyrazol-4-yl)spiro[chromeno[2,3-b]pyridine-5,4′-[1,3]thiazol]-2′-amine]

IC50 [1, 4]: 0.074 µM | IC50 [2, 3]: 0.0009 µM
Compound: NC1=NC2(CS1)c1cc(-c3cccnc3F)ccc1Oc1c2cc(-c2cccnc2F)nc1F (centres unmarked) [Example 682, 1-fluoro-3,7-bis(2-fluoro-3-pyridinyl)spiro[chromeno[2,3-c]pyridine-5,4′-[1,3]thiazol]-2′-amine]

IC50 [1, 5]: 0.008 µM | IC50 [2, 3]: 0.0004 µM
Compound: N#Cc1cccc(-c2ccc3c(c2)[C@@]2(COC(N)=N2)c2cc(C4=CCCOC4)nc(F)c2O3)c1 [Example 742, 3-((5S)-2′-amino-3-(5,6-dihydro-2H-pyran-3-yl)-1-fluorospiro[chromeno[2,3-c]pyridine-5,4′-[1,3]oxazol]-7-yl)benzonitrile]

IC50 ([1]; average IC50, HEK cells, read-out: HEK cell assay): 0.0139 µM | IC50 [2, 3]: 0.0028 µM
Compound: CC1(C)C[C@H](c2cnc3c(c2)[C@]2(COC(N)=N2)c2cc(-c4cccnc4F)ccc2O3)CCO1 [Example 469, (5S)-3-((4R)-2,2-dimethyltetrahydro-2H-pyran-4-yl)-7-(2-fluoro-3-pyridinyl)spiro[chromeno[2,3-b]pyridine-5,4′-[1,3]oxazol]-2′-amine]

IC50 [1, 4]: 0.004 µM | IC50 [2, 3]: 0.0004 µM
Compound: CC#Cc1cncc(-c2ccc3c(c2)[C@@]2(COC(N)=N2)c2cc(OCC(C)(C)C#N)cc(F)c2O3)c1 [Example 948, 3-(((4S)-2-amino-4′-fluoro-7′-(5-(1-propyn-1-yl)-3-pyridinyl)spiro[1,3-oxazole-4,9′-xanthen]-2′-yl)oxy)-2,2-dimethylpropanenitrile]

IC50 [1, 4]: 0.005 µM | IC50 [2, 3]: 0.0003 µM
Compound: NC1=N[C@@]2(CO1)c1cc(-c3cccnc3F)c(F)cc1Oc1c(F)cc(C3=CCCOC3)cc12 [Example 865, (4S)-7′-(5,6-dihydro-2H-pyran-3-yl)-3′,5′-difluoro-2′-(2-fluoro-3-pyridinyl)spiro[1,3-oxazole-4,9′-xanthen]-2-amine]

IC50 [1, 5]: 0.024 µM | IC50 [2, 3]: 0.0019 µM
Compound: NC1=N[C@@]2(CO1)c1cc(-c3cccnc3)ccc1Oc1c2cc(C2=CCOCC2)c(F)c1F [Example 1007, (4S)-2′-(3,6-dihydro-2H-pyran-4-yl)-3′,4′-difluoro-7′-(3-pyridinyl)spiro[1,3-oxazole-4,9′-xanthen]-2-amine]

IC50 [1, 4]: 0.004 µM | IC50 [2, 3]: 0.0006 µM
Compound: CC#Cc1cncc(-c2ccc3c(c2)[C@@]2(COC(N)=N2)c2cc(N4CCOCC4)cc(F)c2O3)c1 [Example 952, (4S)-4′-fluoro-2′-(4-morpholinyl)-7′-(5-(1-propyn-1-yl)-3-pyridinyl)spiro[1,3-oxazole-4,9′-xanthen]-2-amine]

IC50 [1, 4]: 0.007 µM | IC50 [2, 3]: 0.0003 µM
Compound: NC1=N[C@@]2(CS1)c1cc(-c3cncnc3)c(F)cc1Oc1c(F)cc(C3=CCCOC3)cc12 [Example 873, (4S)-7′-(5,6-dihydro-2H-pyran-3-yl)-3′,5′-difluoro-2′-(5-pyrimidinyl)spiro[1,3-thiazole-4,9′-xanthen]-2-amine]

IC50 [1, 4]: 0.008 µM | IC50 [2, 3]: 0.0006 µM
Compound: NC1=N[C@@]2(CO1)c1cc(-c3cccnc3F)ccc1Oc1cnc(N3CCC(F)CC3)cc12 [Example 436, (5S)-3-(4-fluoro-1-piperidinyl)-7-(2-fluoro-3-pyridinyl)spiro[chromeno[2,3-c]pyridine-5,4′-[1,3]oxazol]-2′-amine]

IC50 [1, 4]: 0.0132 µM | IC50 [2, 3]: 0.0024 µM
Compound: N#Cc1cncc(-c2ccc3c(c2)[C@@]2(COC(N)=N2)c2cc(OCC4CCOCC4)cc(F)c2O3)c1 [Example 553, 5-((4S)-2-amino-5′-fluoro-7′-(tetrahydro-2H-pyran-4-ylmethoxy)spiro[1,3-oxazole-4,9′-xanthen]-2′-yl)-3-pyridinecarbonitrile]
